In US20110160184A1, “Dibenzothiazepine Derivatives and Use Thereof” (ASTRAZENECA AB, priority 2008, published 2011):
pIC50, pKi: −log10 of the molar value. Like-named read-outs stand apart in the source and are kept apart here.

Legend:
dopamine D2s receptor [1] = molecular target: T1, dopamine D2s receptor (Homo sapiens, UniProt P14416); experiment: D2 receptor in vitro functional GTPγS assay (block of dopamine-stimulated [35S]-GTPγS binding); assay type: biochemical
T1 construct: expressed in transfected cells; membranes used
Protocol: (§1) In vitro experimental assays can generally be carried out as described herein. Briefly, CHO-K1 cells stably transfected with the dopamine D2s receptor can be used in the experiments and maintained in Ham's F12 culture medium supplemented with 2 mM L-glutamine, 10% FBS, and 500 μg/ml Hygromycin.
GTPgS assay can be performed substantially as described by Lazareno, Methods in Molecular Biology, 1999, 106, 231-245. Antagonist activity of compounds can be determined by the ability of test compounds to block dopamine-stimulated [^35S]-GTPγS binding to cell membranes from D2s stably-transfected CHO cells.

dopamine D2s receptor [2] = molecular target: T1, dopamine D2s receptor; experiment: D2 receptor binding assay (3H-raclopride displacement, membranes from D2s-transfected CHO cells)
Protocol: as §1
The ability of test compounds to displace ^3H-raclopride at the D2s receptor can be determined on membranes from D2s-transfected CHO cells (Bmax 13 pmol/mg protein). An assay can use a standard 96-well glass-fiber filter plate to retain radioligand bound by the receptor. Retained ^3H can be determined in a TopCount scintillation plate counter following the addition of a liquid scintillant to each well. Compounds can be evaluated for their potency using competition curve analysis, resulting in calculated Ki values.

[3] = molecular target: T2, human norepinephrine transporter (Homo sapiens, UniProt P23975); experiment: Norepinephrine uptake (fluorescent substrate, HEK293F cells); assay type: cell-based
T2 construct: expressed in transfected cells
Protocol: An assay for measuring norepinephrine uptake can be carried out as described below. Briefly, test compounds can be evaluated in an 11-point IC50 curve for their ability to inhibit uptake of a proprietary fluorescent substrate (dye) from Molecular Devices that mimics biogenic amine neurotransmitters. A stable population of HEK293F cells transfected with the human norepinephrine transporter (cultured in Freestyle 293 expression medium with […] hygromycin B) can be cryopreserved, then plated and used on the day of the assay. Cells can be at 60 K/well; dye can be 7% (final) of the vendor-recommended reconstitution volume (100%). Compounds can be diluted 1:20 in buffer and incubated with the cells for 30 minutes prior to addition of the dye. In this fluorescence intensity assay, plates can be read after a 20 minute dye incubation to determine percent effect with respect to total signal (0.5% DMSO, final) and background signal (10 μM desipramine, final). The IC50, half of the control response, can be converted to Ki using the using the standard Cheng-Prusoff equation.

H1 receptor = H1 receptor (Homo sapiens, UniProt P35367); experiment: H1 receptor binding; details: read-out: H1 Hu Bind Mean Ki
Description: H1 Receptor Binding The H1 receptor binding method can be carried out in accordance with De Backer et al., Biochem. Biophys. Res. Commun, 1993, 197(3), 1601.

[4] = tested on: D-Amphetamine-induced Hyperlocomotor Activity; experiment: D-Amphetamine-induced hyperlocomotor activity (LMA) in habituated rat model; assay type: in vivo, male Long Evans rats; details: D-amphetamine 1 mg/kg s.c.
Protocol: Studies in vivo can be used to determine the antipsychotic effect and are generally carried out as follows. Briefly, D-Amphetamine-induced Hyperlocomotor Activity (LMA) in a Habituated Rat Model can be assessed in male Long Evans rats using a paradigm that includes a habituation phase followed by administration of 1 mg/kg D-amphetamine. Animals can be allowed to acclimatize to the testing room for 1 hour before being weighed and placed into activity chambers. Thirty minutes after LMA measurement is begun, animals can be briefly removed, dosed via the sub-cutaneous route (s.c.) with vehicle or test drug at different doses and returned to the chambers. After a further 30 minutes, animals can again be removed and dosed with vehicle or D-amphetamine at 1 mg/kg (s.c.). After returning the animals to the activity chambers, LMA can be assessed for a further 60 minutes. Haloperidol (0.1 mg/kg dissolved in H2O) can be administered 15 minutes prior to D-amphetamine via the s.c. route. Statistical analysis can be made of total distance traveled after D-amphetamine administration using ANOVA and Tukey's post hoc analysis where appropriate. All values can be expressed as Mean and SD.

[5] = tested on: Conditioned Avoidance Responding; experiment: Conditioned avoidance responding (CAR) assay; assay type: in vivo, Male Long-Evans rats; details: rat
Protocol: Male Long-Evans rats can be trained to traverse to the opposite side of a standard shuttle cage following presentation of an auditory and visual stimulus to avoid delivery of electric shock to the floor of the cage. Daily sessions can consist of up to 80 trials. If a shock is delivered, animals have the opportunity to escape the shock by traversing to the opposite side of the cage. Drug can be administered (via s.c. or p.o. route) 60 minutes prior to testing and the percentage of trials in which shock is avoided and escaped can be recorded.

[6] = antagonist mode, read-out: D2 Ant GTPγS IC50
[7] = w/NaCl, read-out: D2 binding w/NaCl Ki
[8] = HEK cells, fluorescence intensity, read-out: hNET uptake HEK FLInt CR Mean Ki

T2 sequence (P23975 whole entry): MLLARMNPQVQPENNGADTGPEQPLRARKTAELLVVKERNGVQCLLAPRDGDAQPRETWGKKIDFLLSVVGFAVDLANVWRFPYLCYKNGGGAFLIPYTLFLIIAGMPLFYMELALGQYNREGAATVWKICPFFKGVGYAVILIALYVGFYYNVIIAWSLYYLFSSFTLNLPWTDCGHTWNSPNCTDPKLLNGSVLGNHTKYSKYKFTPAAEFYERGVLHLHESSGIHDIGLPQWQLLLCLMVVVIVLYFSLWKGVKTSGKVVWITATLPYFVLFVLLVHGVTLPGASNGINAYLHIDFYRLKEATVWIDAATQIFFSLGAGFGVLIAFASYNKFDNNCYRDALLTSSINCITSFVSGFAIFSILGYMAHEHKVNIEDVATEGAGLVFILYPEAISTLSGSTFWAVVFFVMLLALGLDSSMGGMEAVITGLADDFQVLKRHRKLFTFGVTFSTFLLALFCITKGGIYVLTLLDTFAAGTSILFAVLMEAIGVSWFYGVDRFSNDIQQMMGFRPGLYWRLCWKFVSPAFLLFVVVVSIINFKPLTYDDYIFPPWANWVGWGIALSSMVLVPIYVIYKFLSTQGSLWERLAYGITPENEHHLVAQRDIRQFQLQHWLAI
Sequence of H1 receptor (P35367 whole entry): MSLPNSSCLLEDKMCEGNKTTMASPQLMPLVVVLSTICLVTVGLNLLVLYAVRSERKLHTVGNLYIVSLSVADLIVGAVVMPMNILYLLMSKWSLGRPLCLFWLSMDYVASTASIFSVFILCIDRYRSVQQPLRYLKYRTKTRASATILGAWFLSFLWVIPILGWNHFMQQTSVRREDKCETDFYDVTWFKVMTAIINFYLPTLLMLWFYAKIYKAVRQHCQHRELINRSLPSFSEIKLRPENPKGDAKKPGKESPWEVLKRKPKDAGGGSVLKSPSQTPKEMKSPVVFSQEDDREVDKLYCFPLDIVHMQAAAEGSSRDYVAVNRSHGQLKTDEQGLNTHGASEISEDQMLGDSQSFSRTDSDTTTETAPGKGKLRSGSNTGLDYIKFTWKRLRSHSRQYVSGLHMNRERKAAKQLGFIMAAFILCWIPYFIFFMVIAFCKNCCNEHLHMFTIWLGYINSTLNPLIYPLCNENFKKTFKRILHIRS
T1 sequence (P14416 1-414 isoform P14416-2): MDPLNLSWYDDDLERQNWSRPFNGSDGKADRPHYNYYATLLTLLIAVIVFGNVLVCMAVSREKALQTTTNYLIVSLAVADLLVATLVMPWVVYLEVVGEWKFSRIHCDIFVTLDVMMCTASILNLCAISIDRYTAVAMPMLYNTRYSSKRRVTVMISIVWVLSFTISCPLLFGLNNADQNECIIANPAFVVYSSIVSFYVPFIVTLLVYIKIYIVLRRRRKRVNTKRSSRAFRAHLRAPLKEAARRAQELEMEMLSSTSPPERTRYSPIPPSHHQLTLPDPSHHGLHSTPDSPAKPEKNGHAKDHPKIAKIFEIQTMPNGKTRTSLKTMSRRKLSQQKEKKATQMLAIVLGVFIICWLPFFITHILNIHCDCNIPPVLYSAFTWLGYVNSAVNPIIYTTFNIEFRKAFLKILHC

| SMILES | pIC50 (dopamine D2s receptor [1]; [6]) | pKi (dopamine D2s receptor [2]; [7]) | pKi [3, 8] | pKi (H1 receptor) | activity in D-amphetamine-induced LMA ([4]; 30 mg/kg (sc)) | activity in D-amphetamine-induced LMA ([4]; 60 mg/kg (sc)) | pKi ([3]; HEK293F cells with human NET, Cheng-Prusoff from IC50, one average result, read-out: NET inhibition Ki) | activity in conditioned avoidance responding ([5]; 30 mg/kg (sc)) | activity in conditioned avoidance responding ([5]; 60 mg/kg (sc)) | pIC50 (dopamine D2s receptor [1]; antagonist, dopamine-stimulated [35S]-GTPγS binding, D2s CHO membranes, one average result, read-out: GTPγS IC50) | pKi (dopamine D2s receptor [2]; 3H-raclopride, D2s-transfected CHO cell membranes, one average result, read-out: D2 binding Ki) |
| --- | --- | --- | --- | --- | --- | --- | --- | --- | --- | --- | --- |
| CN1CCN(C2=Nc3ccccc3Sc3ccc(Cl)cc32)CC1 [2-Chloro-11-(4-methyl-piperazin-1-yl)-dibenzo[b,f][1,4]thiazepine] | 8.08 | 9.31 |  |  |  |  |  |  |  |  |  |
| Clc1ccc2c(c1)C(N1CCNCC1)=Nc1ccccc1S2 [2-Chloro-11-piperazin-1-yl-dibenzo[b,f][1,4]thiazepine] | 7.46 | 9.15 | 7.39 | 8.41 |  |  |  |  |  |  |  |
| CN1CCN(C2=Nc3ccccc3Sc3ccc(F)cc32)CC1 [2-Fluoro-11-(4-methyl-piperazin-1-yl)-dibenzo[b,f][1,4]thiazepine] | 6.77 | 8.96 | 7.23 | 8.74 |  |  |  |  |  |  |  |
| c1ccc2c(c1)N=C(N1CCNCC1)c1ccccc1S2 [11-Piperazin-1-yl-dibenzo[b,f][1,4]thiazepine] | 6.10 | 7.43 | 7.62 | 8.48 |  |  |  |  |  |  |  |
| Fc1ccc2c(c1)C(N1CCNCC1)=Nc1ccccc1S2 [Example 1, 2-fluoro-11-(piperazin-1-yl)dibenzo[b,f][1,4]thiazepine] | 6.40 | 7.96 | 8.02 |  | showed activity | showed activity | ~8.00 | showed activity | showed activity | ~6.39 | ~7.96 |
